# Results as given in PubChem BioAssay (NCI).
#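 1) Cells in 96-well plates. 2) Compound, 48 h, 5 concentrations. 3) Linear interpolation between surrounding doses. 4) Unreached endpoint = highest concentration. GI50 is the concentration that inhibits growth by half. TGI: concentration producing complete growth inhibition.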
# Experiments:
# Test in all cases: NCI tumour cell line growth inhibition, 48 h
# A498 renal = test system: A498 renal
# A549 NSCLC = test system: A549 NSCLC
# ACHN renal = test system: ACHN renal
# CAKI-1 renal = test system: CAKI-1 renal
# COLO 205 colon = test system: COLO 205 colon
# DU-145 prostate = test system: DU-145 prostate
# EKVX NSCLC = test system: EKVX NSCLC
# HCT-15 colon = test system: HCT-15 colon
# HOP-92 NSCLC = test system: HOP-92 NSCLC
# HT29 colon = test system: HT29 colon
# IGROV1 ovarian = test system: IGROV1 ovarian
# KM12 colon = test system: KM12 colon
# M14 melanoma = test system: M14 melanoma
# MDA-MB-231 breast = test system: MDA-MB-231 breast
# MDA-MB-435 = test system: MDA-MB-435
# MDA-N = test system: MDA-N
# NCI-H23 lung = test system: NCI-H23 lung
# NCI/ADR-RES ovarian = test system: NCI/ADR-RES ovarian
# OVCAR-3 ovarian = test system: OVCAR-3 ovarian
# OVCAR-4 ovarian = test system: OVCAR-4 ovarian
# OVCAR-5 ovarian = test system: OVCAR-5 ovarian
# OVCAR-8 ovarian = test system: OVCAR-8 ovarian
# PC-3 prostate = test system: PC-3 prostate
# RXF 393 renal = test system: RXF 393 renal
# SF-268 CNS = test system: SF-268 CNS
# SF-295 CNS = test system: SF-295 CNS
# SK-MEL-28 melanoma = test system: SK-MEL-28 melanoma
# SK-MEL-5 melanoma = test system: SK-MEL-5 melanoma
# SN12C renal = test system: SN12C renal
# SNB-19 CNS = test system: SNB-19 CNS
# SNB-75 CNS = test system: SNB-75 CNS
# SW-620 colon = test system: SW-620 colon
# TK-10 renal = test system: TK-10 renal
# U251 CNS = test system: U251 CNS
# UO-31 renal = test system: UO-31 renal
# 786-0 renal = test system: 786-0 renal
# BT-549 breast = test system: BT-549 breast
# CCRF-CEM leukemia = test system: CCRF-CEM leukemia
# HCC-2998 colon = test system: HCC-2998 colon
# HCT-116 colon = test system: HCT-116 colon
# HL-60(TB) leukemia = test system: HL-60(TB) leukemia
# HOP-62 NSCLC = test system: HOP-62 NSCLC
# HS 578T breast = test system: HS 578T breast
# K-562 leukemia = test system: K-562 leukemia
# LOX IMVI melanoma = test system: LOX IMVI melanoma
# MALME-3M melanoma = test system: MALME-3M melanoma
# MCF7 breast = test system: MCF7 breast
# MOLT-4 leukemia = test system: MOLT-4 leukemia
# NCI-H226 lung = test system: NCI-H226 lung
# NCI-H460 lung = test system: NCI-H460 lung
# NCI-H522 lung = test system: NCI-H522 lung
# RPMI-8226 leukemia = test system: RPMI-8226 leukemia
# SF-539 CNS = test system: SF-539 CNS
# SK-MEL-2 melanoma = test system: SK-MEL-2 melanoma
# SK-OV-3 ovarian = test system: SK-OV-3 ovarian
# SR leukemia = test system: SR leukemia
# T-47D breast = test system: T-47D breast
# UACC-257 melanoma = test system: UACC-257 melanoma
# UACC-62 melanoma = test system: UACC-62 melanoma
structure (smiles),measurement,setting,value
C[N+]12CCN(c3ccccc31)c1ccccc12,TGI,A498 renal,> 10 µM
same,TGI,A549 NSCLC,> 10 µM
same,TGI,ACHN renal,> 10 µM
same,TGI,CAKI-1 renal,> 10 µM
same,TGI,COLO 205 colon,> 10 µM
same,TGI,DU-145 prostate,> 10 µM
same,TGI,EKVX NSCLC,> 10 µM
same,TGI,HCT-15 colon,> 10 µM
same,TGI,HOP-92 NSCLC,> 10 µM
same,TGI,HT29 colon,> 10 µM
same,TGI,IGROV1 ovarian,> 10 µM
same,TGI,KM12 colon,> 10 µM
same,TGI,M14 melanoma,> 10 µM
same,TGI,MDA-MB-231 breast,> 10 µM
same,TGI,MDA-MB-435,> 10 µM
same,TGI,MDA-N,8.56 µM
same,TGI,NCI-H23 lung,> 10 µM
same,TGI,NCI/ADR-RES ovarian,> 10 µM
same,TGI,OVCAR-3 ovarian,> 10 µM
same,TGI,OVCAR-4 ovarian,> 10 µM
same,TGI,OVCAR-5 ovarian,> 10 µM
same,TGI,OVCAR-8 ovarian,> 10 µM
same,TGI,PC-3 prostate,> 10 µM
same,TGI,RXF 393 renal,> 10 µM
same,TGI,SF-268 CNS,> 10 µM
same,TGI,SF-295 CNS,> 10 µM
same,TGI,SK-MEL-28 melanoma,> 10 µM
same,TGI,SK-MEL-5 melanoma,5.42 µM
same,TGI,SN12C renal,> 10 µM
same,TGI,SNB-19 CNS,> 10 µM
same,TGI,SNB-75 CNS,> 10 µM
same,TGI,SW-620 colon,> 10 µM
same,TGI,TK-10 renal,> 10 µM
same,TGI,U251 CNS,> 10 µM
same,TGI,UO-31 renal,> 10 µM
Nc1nnnc2nc[nH]c12,GI50,786-0 renal,0.96 µM
same,TGI,786-0 renal,> 100 µM
same,GI50,A498 renal,1.87 µM
same,TGI,A498 renal,15.3 µM
same,GI50,A549 NSCLC,6.42 µM
same,TGI,A549 NSCLC,> 100 µM
same,GI50,ACHN renal,1.08 µM
same,TGI,ACHN renal,> 100 µM
same,GI50,BT-549 breast,1.03 µM
same,TGI,BT-549 breast,> 25.2 µM
same,GI50,CAKI-1 renal,0.221 µM
same,GI50,CCRF-CEM leukemia,0.72 µM
same,TGI,CCRF-CEM leukemia,> 100 µM
same,GI50,COLO 205 colon,1.85 µM
same,TGI,COLO 205 colon,7.47 µM
same,GI50,DU-145 prostate,0.8 µM
same,TGI,DU-145 prostate,> 100 µM
same,GI50,EKVX NSCLC,0.7 µM
same,TGI,EKVX NSCLC,> 100 µM
same,GI50,HCC-2998 colon,1.26 µM
same,TGI,HCC-2998 colon,> 34.7 µM
same,GI50,HCT-116 colon,0.639 µM
same,TGI,HCT-116 colon,> 100 µM
same,GI50,HCT-15 colon,2.64 µM
same,TGI,HCT-15 colon,> 100 µM
same,GI50,HL-60(TB) leukemia,1.92 µM
same,TGI,HL-60(TB) leukemia,> 100 µM
same,GI50,HOP-62 NSCLC,0.907 µM
same,TGI,HOP-62 NSCLC,> 58 µM
same,GI50,HOP-92 NSCLC,0.622 µM
same,TGI,HOP-92 NSCLC,> 100 µM
same,GI50,HS 578T breast,3.51 µM
same,TGI,HS 578T breast,> 65.5 µM
same,GI50,HT29 colon,3.79 µM
same,TGI,HT29 colon,> 100 µM
same,GI50,IGROV1 ovarian,4.75 µM
same,TGI,IGROV1 ovarian,> 100 µM
same,GI50,K-562 leukemia,3.72 µM
same,TGI,K-562 leukemia,> 100 µM
same,GI50,KM12 colon,4.11 µM
same,TGI,KM12 colon,> 100 µM
same,GI50,LOX IMVI melanoma,0.455 µM
same,TGI,LOX IMVI melanoma,> 25.8 µM
same,GI50,M14 melanoma,0.568 µM
same,TGI,M14 melanoma,4.02 µM
same,GI50,MALME-3M melanoma,0.759 µM
same,TGI,MALME-3M melanoma,7.06 µM
same,GI50,MCF7 breast,2.58 µM
same,TGI,MCF7 breast,> 100 µM
same,GI50,MDA-MB-231 breast,0.597 µM
same,TGI,MDA-MB-231 breast,> 100 µM
same,GI50,MDA-MB-435,0.542 µM
same,TGI,MDA-MB-435,2.57 µM
same,GI50,MOLT-4 leukemia,2.62 µM
same,TGI,MOLT-4 leukemia,> 100 µM
same,GI50,NCI-H226 lung,1.05 µM
same,TGI,NCI-H226 lung,4.86 µM
same,GI50,NCI-H23 lung,3.19 µM
same,TGI,NCI-H23 lung,40.9 µM
same,GI50,NCI-H460 lung,2.46 µM
same,TGI,NCI-H460 lung,> 100 µM
same,GI50,NCI-H522 lung,2.02 µM
same,TGI,NCI-H522 lung,17 µM
same,GI50,NCI/ADR-RES ovarian,0.742 µM
same,TGI,NCI/ADR-RES ovarian,> 26 µM
same,GI50,OVCAR-3 ovarian,2.53 µM
same,TGI,OVCAR-3 ovarian,> 100 µM
same,GI50,OVCAR-4 ovarian,0.547 µM
same,TGI,OVCAR-4 ovarian,> 100 µM
same,GI50,OVCAR-5 ovarian,0.623 µM
same,TGI,OVCAR-5 ovarian,> 100 µM
same,GI50,OVCAR-8 ovarian,1.26 µM
same,TGI,OVCAR-8 ovarian,> 100 µM
same,GI50,PC-3 prostate,2.42 µM
same,TGI,PC-3 prostate,> 100 µM
same,GI50,RPMI-8226 leukemia,0.245 µM
same,TGI,RPMI-8226 leukemia,> 85.8 µM
same,GI50,RXF 393 renal,1.35 µM
same,TGI,RXF 393 renal,> 100 µM
same,GI50,SF-268 CNS,3.19 µM
same,TGI,SF-268 CNS,> 100 µM
same,GI50,SF-295 CNS,0.78 µM
same,TGI,SF-295 CNS,> 29.8 µM
same,GI50,SF-539 CNS,1.63 µM
same,TGI,SF-539 CNS,13.5 µM
same,GI50,SK-MEL-2 melanoma,1.06 µM
same,TGI,SK-MEL-2 melanoma,42.4 µM
same,TGI,SK-MEL-28 melanoma,> 45.8 µM
same,GI50,SK-MEL-5 melanoma,2.02 µM
same,TGI,SK-MEL-5 melanoma,8.22 µM
same,GI50,SK-OV-3 ovarian,0.327 µM
same,TGI,SK-OV-3 ovarian,6.22 µM
same,GI50,SN12C renal,2.25 µM
same,TGI,SN12C renal,> 100 µM
same,GI50,SNB-19 CNS,6.17 µM
same,TGI,SNB-19 CNS,> 100 µM
same,TGI,SNB-75 CNS,> 100 µM
same,TGI,SR leukemia,> 100 µM
same,GI50,SW-620 colon,0.78 µM
same,TGI,SW-620 colon,> 100 µM
same,GI50,T-47D breast,0.297 µM
same,TGI,T-47D breast,2.55 µM
same,GI50,TK-10 renal,0.5 µM
same,TGI,TK-10 renal,> 41.5 µM
same,GI50,U251 CNS,2.39 µM
same,TGI,U251 CNS,> 100 µM
same,GI50,UACC-257 melanoma,0.729 µM
same,TGI,UACC-257 melanoma,14 µM
same,GI50,UACC-62 melanoma,0.637 µM
same,TGI,UACC-62 melanoma,2.72 µM
same,GI50,UO-31 renal,0.523 µM
same,TGI,UO-31 renal,> 100 µM
COc1cccc2nc3ccccc3nc12,TGI,786-0 renal,> 100 µM
same,TGI,A498 renal,> 100 µM
same,TGI,A549 NSCLC,> 100 µM
same,TGI,ACHN renal,63.4 µM
same,TGI,CAKI-1 renal,> 100 µM
same,TGI,CCRF-CEM leukemia,> 100 µM
same,TGI,COLO 205 colon,> 100 µM
same,TGI,DU-145 prostate,> 100 µM
same,TGI,EKVX NSCLC,> 100 µM
same,TGI,HCC-2998 colon,> 100 µM
same,TGI,HCT-116 colon,> 100 µM
same,TGI,HCT-15 colon,> 100 µM
same,TGI,HL-60(TB) leukemia,> 100 µM
same,TGI,HOP-62 NSCLC,> 100 µM
same,TGI,HOP-92 NSCLC,78.1 µM
same,TGI,HS 578T breast,> 100 µM
same,TGI,HT29 colon,> 100 µM
same,TGI,K-562 leukemia,> 100 µM
same,TGI,KM12 colon,> 100 µM
same,TGI,LOX IMVI melanoma,> 100 µM
same,TGI,M14 melanoma,> 100 µM
same,TGI,MALME-3M melanoma,> 100 µM
same,TGI,MCF7 breast,> 100 µM
same,TGI,MDA-MB-231 breast,> 100 µM
same,TGI,MDA-MB-435,> 100 µM
same,TGI,MDA-N,> 100 µM
same,TGI,MOLT-4 leukemia,> 100 µM
same,TGI,NCI-H226 lung,> 100 µM
same,TGI,NCI-H23 lung,> 100 µM
same,TGI,NCI-H460 lung,> 100 µM
same,TGI,NCI/ADR-RES ovarian,> 100 µM
same,TGI,OVCAR-3 ovarian,> 100 µM
same,TGI,OVCAR-5 ovarian,> 100 µM
same,TGI,OVCAR-8 ovarian,69.1 µM
same,TGI,PC-3 prostate,> 100 µM
same,TGI,RPMI-8226 leukemia,69.1 µM
same,TGI,RXF 393 renal,> 100 µM
same,TGI,SF-268 CNS,> 100 µM
same,TGI,SF-295 CNS,> 100 µM
same,TGI,SF-539 CNS,> 100 µM
same,TGI,SK-MEL-28 melanoma,> 100 µM
same,TGI,SK-MEL-5 melanoma,> 100 µM
same,TGI,SK-OV-3 ovarian,> 100 µM
same,TGI,SN12C renal,> 100 µM
same,TGI,SNB-19 CNS,> 100 µM
same,TGI,SNB-75 CNS,> 100 µM
same,TGI,SR leukemia,> 100 µM
same,TGI,SW-620 colon,> 100 µM
same,TGI,T-47D breast,> 100 µM
same,TGI,TK-10 renal,> 100 µM
same,TGI,U251 CNS,> 100 µM
same,TGI,UACC-257 melanoma,> 100 µM
same,TGI,UACC-62 melanoma,> 100 µM
same,TGI,UO-31 renal,72.3 µM
